Results from ChEMBL document CHEMBL1152135, “New synthesis and evaluation of enantiomers of 7-methyl-2-exo-(3'-iodo-5'-pyridinyl)-7-azabicyclo[2.2.1]heptane as stereoselective ligands for PET imaging of nicotinic acetylcholine receptors” (Bioorg Med Chem Lett, 2008).
pKi: −log10 of the molar value.

Assay: Displacement of [3H]epibatine from nAChR in rat cortical membrane
Type: cell membranes

Clc1ccc(C2CC3CCC2N3)cn1 (stereo not given) [EPIBATIDINE] and Ic1cncc([C@H]2C[C@H]3CC[C@H]2N3)c1 (stereo in doubt; (+)-4) are within 0.2 log units of each other in pKi: 10.34 for the first, 10.32 for the second.

CN1[C@@H]2CC[C@@H]1[C@@H](c1cncc(I)c1)C2 (stereo in doubt; (+)-5) and Ic1cncc([C@H]2C[C@H]3CC[C@H]2N3)c1 (stereo in doubt; (-)-4) are within 0.2 log units of each other in pKi: 10.26 for the first, 10.35 for the second.

CN1[C@@H]2CC[C@@H]1[C@@H](c1cncc(I)c1)C2 (stereo in doubt; (-)-5) gave a pKi of 8.77.
